Results as given in patent US20250144187A1, “COMBINATION OF HYDROLASES AND ANTI-MICROORGANISM DRUGS AND USES THEREOF” (CENTRE FOR EYE AND VISION RESEARCH LIMITED, priority 2023, published 2025).

How the values were obtained:
MRSE [1] = assay: High-throughput screening of 1953 FDA-approved compounds with human lysozyme; assay type: cell-based, Staphylococcus epidermis; conditions: compound 25 μM + 1 mg/ml lysozyme, 24-hour
Method: 1) High-throughput screening. According to standard screening method [Zhong. […] Commun. 11, 523 (2020)], 1953 FDA-approved compounds from our drugs library at a fixed concentrations of 25 μM were screened against methicillin-resistant Staphylococcus aureus (MRSA) and Staphylococcus epidermis (a coagulase negative Staphylococci, MRSE), in combination with human lysozyme. Specifically, these compounds were added into bacterial suspensions (1×10^5 CFU/ml, in LB medium) in the absence or presence of 1 mg/ml lysozyme. LB medium without bacteria served as background group. Then, the real-time growth curvet of MRSA were monitored per hour and for 24 hours. Absorbance at 600 am (OD600) of bacterial culture at the time point of 24-hour was also measured. The inhibition ratio (%) was calculated as (ODcontrol−ODsample)/(ODcontrol−ODbackground)×100%. […] Herein, the relative and apparent inhibition ratios indicated the combination effect and potential toxicity of compound, respectively. Synergy effect was defined as the relative inhibition ratio of ≥90%. All assays were performed in triplicate.

MRSA [2] = assay: High-throughput screening of 4989 compounds with human lysozyme; assay type: cell-based, Staphylococcus aureus; conditions: for MRSA Inhibition ratio (%): compound 2.5 μM + 1 mg/ml lysozyme relative to compound only
Method: 1) High-throughput screening. […] Specifically, these compounds were added into bacterial suspensions (1×10^6 CFU/ml) in the […] microliter plate, in which each well contained 50 μl of lysogeny broth (LB) medium with or without 1 mg/ml lysozyme. LB medium in the absence of bacteria served as background group. Then, the real-time growth curves of MRSA were monitored per hour and for 24 hours. Experiments were performed with the biological replicates. Fly analyzing the absorbance 600 nm (OD600) of bacterial culture at the time point of 24-hour, the inhibition ratio (%) was calculated according to (ODcontrol−ODsample)/(ODcontrol−ODbackground)×100%. Here, the relative and apparent inhibition ratios were figured out by using the absorbance of bacterial suspension only containing compound and that without any drug treatment as ODcontrol, respectively. The relative and apparent inhibition ratios indicated the combination effect and potential toxicity of compound in combination effect. Synergy effect was defined as the relative inhibition ratio of ≥90%.

ARPE-19 cells = assay type: cell-based; conditions: human, 24 h
Method: 14) Toxicities analysis on lysozyme and cefdinir. Toxicities analysis of lysozyme and cefdinir were performed on ARPE-19 and 293T cells [Guo H et al., ACS Chem Biol 17, 2003-2009 (2022)]. Drugs at different concentrations were added into the plates, in which cells had 80% confluency. Those without any drug's treatment served as control group. Ater 24 hours culture at 37° C., survival cells were counted by using CCK-8 kit, 100% survival ratio (no toxicity) was defined as those had same number of survival cells in control group.

MRSA [3] = assay: TMT proteomics analysis, tedizolid phosphate/lysozyme; assay type: cell-based, Staphylococcus aureus
MRSA and MRSE = assay: Resistance development studies (serial passages), tedizolid phosphate/lysozyme; assay type: cell-based; conditions: after 12-day serial passages
Method: 5) Resistance development studies. […] H et al., Nat Commun. 11, 5263 (2020)], MRSA at exponential phase was diluted (1:1000) into fresh LB medium containing different concentrations of tedizolid phosphate, lysozyme alone or their combination. After cultured at 37° C. for 24 hours, the MIC of culture was determined by standard two-fold serial dilutions in 96-well microtiter plates. […] . All assays were performed in triplicate.

MRSE [4] = assay: Check board broth micro-dilution assay, tedizolid phosphate with lysozyme; assay type: cell-based, Staphylococcus epidermis; conditions: tedizolid phosphate and lysozyme
Method: 2) Check board broth micro-dilution assays. According to standard two-fold dilution method [Sun. H et al., Nat. Commun. 11, 5263 (2020) tedizolid phosphate at different concentrations were added into fresh LB medium (or trypticase soy troth medium with 5% defibrinated horse blood) containing different concentrations of human lysozyme in 96-well plate. Then, 20 μl of 1.0×10^7 CFU/ml logarithmic cultures of MRSA or MRSE were added into each well of the plate and co-incubated overnight. Drug-free LB medium in the absence or presence of bacteria served as background control and growth control group, respectively. […] Thus, there would be a series of FICI values. In most of cases, the lowest one among these values was listed to reflect the best achieving degree of combination therapy. In terms of the lowest FICI, FICI≤0.5, 0.5<FICI<1 or FICI≥1, would indicate the combination has synergy, part synergy or non-synergy effects, respectively.

[5] = combination therapy compared with lysozyme alone, 1 hour

| Structure (SMILES) | Growth inhibition ratio (mean ± SD, %) MRSE (MRSE [1]) [%] | MRSA Combination (MRSA [2]; OD600 at 24-hour, compound 2.5 μM + 1 mg/ml lysozyme) | MRSA Drug only (MRSA [2]; OD600 at 24-hour, compound 2.5 μM without lysozyme) | MRSA Inhibition ratio (%) (MRSA [2]) | MRSA Inhibition ratio (%) (MRSA [2]; listed as Ce ? dinir) | safe concentration without any effect on cell survival ratios (ARPE-19 cells) [µg/mL] | level of FtsA (MRSA [3]; combination therapy) [fold] | level of OatA (Q2FV54) (MRSA [3]; combination therapy) | level of SepF (MRSA [3]; combination therapy) [fold] | expression of ornithine carbamoyltransferase (Q5HCR3) (MRSA [3]; [5]) [fold] | level of arginine deiminase (Q5HKU2) (MRSA [3]; [5]) [fold] | level of urease subunit alpha (A5IV71) (MRSA [3]; [5]) | phosphoglycerate kinase (Q5HQV3) level (MRSA [3]; combination therapy, 1 hour) [fold] | probable malate:quinone oxidoreductase I (P65421) level (MRSA [3]; combination therapy, 1 hour) [fold] | changes in the MIC level of tedizolid phosphate (MRSA and MRSE; combination therapy with lysozyme) | changes in the MIC level of tedizolid phosphate (MRSA and MRSE; tedizolid phosphate alone) [fold] | fractional inhibitory concentration index (FICI) (MRSE [4]) |
| --- | --- | --- | --- | --- | --- | --- | --- | --- | --- | --- | --- | --- | --- | --- | --- | --- | --- |
| C=CC1=C(C(=O)O)N2C(=O)[C@@H](NC(=O)/C(=N\O)c3csc(N)n3)[C@H]2SC1 [cefdinir, Cefdinir] | 20.31 ± 13.83 | 0.0564 | 0.6975 | above 90% | 99.16 | < 64 |  |  |  |  |  |  |  |  |  |  |  |
| Cn1nnc(-c2ccc(-c3ccc(N4C[C@H](COP(=O)(O)O)OC4=O)cc3F)cn2)n1 [tedizolid phosphate, Tedizolid Phosphate] |  |  |  |  |  |  | 0.003 | significant increase | 0.5 | 0.5 | 3.9 | 1,5 fold | 0.005 | 0.12 | remained unchanged | 30 | < 0.023 |
